# Experimental data from PMC9056166 (RSC Advances, 2020).
# Entries after “also recorded” stand apart in the source; their conditions may differ. Marks after values point to notes of the source that are not given here.
# System: not given
# Assay: not given
# Assay type: in vivo, White New Zealand rabbits
# Details: mean arterial blood pressure, normotensive rabbits, i.v. (jugular vein), means ± SE, n = 4
row,Structure (SMILES),MABP
1,"CC(=O)C(=NO)C(=O)Nc1nccs1 [Compound 2, 2-(hydroxyimino)-3-oxo-N-(thiazol-2-yl)butanamide]",115^##
2,"CCOC(=O)c1c(C)[nH]c(C(=O)Nc2nccs2)c1C [Compound 5a, Ethyl 2,4-dimethyl-5-(thiazol-2-ylcarbamoyl)-1H-pyrrole-3-carboxylate]",108^##
3,"CC(=O)c1c(C)[nH]c(C(=O)Nc2nccs2)c1C [Compound 5b, 4-Acetyl-3,5-dimethyl-N-(thiazol-2-yl)-1H-pyrrole-2-carboxamide]",98
4,"Cc1cc(O)n(-c2nccs2)n1 [Compound 7, 3-methyl-1-(thiazol-2-yl)-1H-pyrazol-5-ol]",81^#
5,"CCOC(=O)CCC(=O)Nc1nccs1 [Compound 11, ethyl 4-oxo-4-(thiazol-2-ylamino)butanoate]",85^&
6,"CC(=O)C(C(C)=O)C(=O)Nc1nccs1 [Compound 17, 2-acetyl-3-oxo-N-(thiazol-2-yl)butanamide]",87^&
7,"C/C(=C/C(=O)Nc1nccs1)Nc1ccccc1 [Compound 23a, (Z)-3-(phenylamino)-N-(thiazol-2-yl)but-2-enamide]",108
8,"COc1ccc(N/C(C)=C\C(=O)Nc2nccs2)cc1 [Compound 23b, (Z)-3-((4-methoxyphenyl)amino)-N-(thiazol-2-yl)but-2-en-amide]",110^##
9,"C/C(=C/C(=O)Nc1nccs1)Nc1ccc(Cl)cc1 [Compound 23c, (Z)-3-((4-chlorophenyl)amino)-N-(thiazol-2-yl)but-2-enamide]",100
10,"CCCc1nn(C)c2c(=O)[nH]c(-c3cc(S(=O)(=O)N4CCN(C)CC4)ccc3OCC)nc12 [Sildenafil, sildenafil, reference compound]",72.50 ± 2.9

# Same assay, conditions: normotensive rabbits
Structure (SMILES),MABP compared with control (in words),MABP compared with sildenafil (in words)
"CC(=O)C(=NO)C(=O)Nc1nccs1 [Compound 2, 2-(hydroxyimino)-3-oxo-N-(thiazol-2-yl)butanamide]",significantly higher,–
"CCOC(=O)c1c(C)[nH]c(C(=O)Nc2nccs2)c1C [Compound 5a, Ethyl 2,4-dimethyl-5-(thiazol-2-ylcarbamoyl)-1H-pyrrole-3-carboxylate]",significantly higher,–
"CC(=O)c1c(C)[nH]c(C(=O)Nc2nccs2)c1C [Compound 5b, 4-Acetyl-3,5-dimethyl-N-(thiazol-2-yl)-1H-pyrrole-2-carboxamide]",higher than the control values in a nonsignificant manner,–
"Cc1cc(O)n(-c2nccs2)n1 [Compound 7, 3-methyl-1-(thiazol-2-yl)-1H-pyrazol-5-ol]",significantly lower than that of the control,insignificantly higher than the sildenafil one
"CCOC(=O)CCC(=O)Nc1nccs1 [Compound 11, ethyl 4-oxo-4-(thiazol-2-ylamino)butanoate]",insignificantly lower than the control values,significantly higher than the sildenafil values
"CC(=O)C(C(C)=O)C(=O)Nc1nccs1 [Compound 17, 2-acetyl-3-oxo-N-(thiazol-2-yl)butanamide]",insignificantly lower than the control values,significantly higher than the sildenafil values
"C/C(=C/C(=O)Nc1nccs1)Nc1ccccc1 [Compound 23a, (Z)-3-(phenylamino)-N-(thiazol-2-yl)but-2-enamide]",without causing hypotension; also recorded: higher than the control values in a nonsignificant manner; also recorded: without a notable decrease in MABP,–
"COc1ccc(N/C(C)=C\C(=O)Nc2nccs2)cc1 [Compound 23b, (Z)-3-((4-methoxyphenyl)amino)-N-(thiazol-2-yl)but-2-en-amide]",significantly higher; also recorded: without a notable decrease in MABP,–
"C/C(=C/C(=O)Nc1nccs1)Nc1ccc(Cl)cc1 [Compound 23c, (Z)-3-((4-chlorophenyl)amino)-N-(thiazol-2-yl)but-2-enamide]",without causing hypotension; also recorded: higher than the control values in a nonsignificant manner,–

# Molecular target: T1, human recombinant COX-2 (Homo sapiens, UniProt P35354)
# T1 sequence (P35354 18-604): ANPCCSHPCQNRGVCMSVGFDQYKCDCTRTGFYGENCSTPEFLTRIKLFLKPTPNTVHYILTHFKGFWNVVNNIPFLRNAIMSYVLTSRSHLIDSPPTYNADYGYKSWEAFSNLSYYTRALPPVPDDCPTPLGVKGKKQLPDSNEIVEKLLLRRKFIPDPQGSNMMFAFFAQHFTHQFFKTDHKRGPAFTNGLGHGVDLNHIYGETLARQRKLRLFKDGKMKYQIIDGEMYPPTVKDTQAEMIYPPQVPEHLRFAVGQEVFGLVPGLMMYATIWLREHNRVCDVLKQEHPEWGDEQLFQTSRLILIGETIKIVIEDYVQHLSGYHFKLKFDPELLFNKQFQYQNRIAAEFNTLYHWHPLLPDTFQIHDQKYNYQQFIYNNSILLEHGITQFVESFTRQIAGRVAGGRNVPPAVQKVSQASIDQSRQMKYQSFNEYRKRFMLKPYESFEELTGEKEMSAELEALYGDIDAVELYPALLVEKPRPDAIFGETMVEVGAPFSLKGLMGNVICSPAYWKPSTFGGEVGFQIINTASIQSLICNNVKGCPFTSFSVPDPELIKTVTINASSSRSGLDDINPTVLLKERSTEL
# Assay: In vitro COX-2 inhibition, enzyme immunoassay
# Assay type: biochemical
# Details: not given
row,Structure (SMILES),IC50 [nM]
1,"CC(=O)C(=NO)C(=O)Nc1nccs1 [Compound 2, 2-(hydroxyimino)-3-oxo-N-(thiazol-2-yl)butanamide]",110
2,"CCOC(=O)c1c(C)[nH]c(C(=O)Nc2nccs2)c1C [Compound 5a, Ethyl 2,4-dimethyl-5-(thiazol-2-ylcarbamoyl)-1H-pyrrole-3-carboxylate]",100
3,"CC(=O)c1c(C)[nH]c(C(=O)Nc2nccs2)c1C [Compound 5b, 4-Acetyl-3,5-dimethyl-N-(thiazol-2-yl)-1H-pyrrole-2-carboxamide]",240
4,"Cc1cc(O)n(-c2nccs2)n1 [Compound 7, 3-methyl-1-(thiazol-2-yl)-1H-pyrazol-5-ol]",630
5,"CCOC(=O)CCC(=O)Nc1nccs1 [Compound 11, ethyl 4-oxo-4-(thiazol-2-ylamino)butanoate]",210
6,"CC(=O)C(C(C)=O)C(=O)Nc1nccs1 [Compound 17, 2-acetyl-3-oxo-N-(thiazol-2-yl)butanamide]",90
7,"C/C(=C/C(=O)Nc1nccs1)Nc1ccccc1 [Compound 23a, (Z)-3-(phenylamino)-N-(thiazol-2-yl)but-2-enamide]",710
8,"COc1ccc(N/C(C)=C\C(=O)Nc2nccs2)cc1 [Compound 23b, (Z)-3-((4-methoxyphenyl)amino)-N-(thiazol-2-yl)but-2-en-amide]",560
9,"C/C(=C/C(=O)Nc1nccs1)Nc1ccc(Cl)cc1 [Compound 23c, (Z)-3-((4-chlorophenyl)amino)-N-(thiazol-2-yl)but-2-enamide]",610

# Same assay, conditions: IC50 (COX-1)/IC50 (COX-2)
row,Structure (SMILES),COX-2 S.I. (COX-1/COX-2)
1,"CC(=O)C(=NO)C(=O)Nc1nccs1 [Compound 2, 2-(hydroxyimino)-3-oxo-N-(thiazol-2-yl)butanamide]",13.64
2,"CCOC(=O)c1c(C)[nH]c(C(=O)Nc2nccs2)c1C [Compound 5a, Ethyl 2,4-dimethyl-5-(thiazol-2-ylcarbamoyl)-1H-pyrrole-3-carboxylate]",16
3,"CC(=O)c1c(C)[nH]c(C(=O)Nc2nccs2)c1C [Compound 5b, 4-Acetyl-3,5-dimethyl-N-(thiazol-2-yl)-1H-pyrrole-2-carboxamide]",5.4
4,"Cc1cc(O)n(-c2nccs2)n1 [Compound 7, 3-methyl-1-(thiazol-2-yl)-1H-pyrazol-5-ol]",10.06
5,"CCOC(=O)CCC(=O)Nc1nccs1 [Compound 11, ethyl 4-oxo-4-(thiazol-2-ylamino)butanoate]",8.1
6,"CC(=O)C(C(C)=O)C(=O)Nc1nccs1 [Compound 17, 2-acetyl-3-oxo-N-(thiazol-2-yl)butanamide]",15.56
7,"C/C(=C/C(=O)Nc1nccs1)Nc1ccccc1 [Compound 23a, (Z)-3-(phenylamino)-N-(thiazol-2-yl)but-2-enamide]",8.87
8,"COc1ccc(N/C(C)=C\C(=O)Nc2nccs2)cc1 [Compound 23b, (Z)-3-((4-methoxyphenyl)amino)-N-(thiazol-2-yl)but-2-en-amide]",10.25
9,"C/C(=C/C(=O)Nc1nccs1)Nc1ccc(Cl)cc1 [Compound 23c, (Z)-3-((4-chlorophenyl)amino)-N-(thiazol-2-yl)but-2-enamide]",10.38

# Molecular target: T2, ovine COX-1 (Ovis aries, UniProt P05979)
# T2 sequence (P05979 25-600): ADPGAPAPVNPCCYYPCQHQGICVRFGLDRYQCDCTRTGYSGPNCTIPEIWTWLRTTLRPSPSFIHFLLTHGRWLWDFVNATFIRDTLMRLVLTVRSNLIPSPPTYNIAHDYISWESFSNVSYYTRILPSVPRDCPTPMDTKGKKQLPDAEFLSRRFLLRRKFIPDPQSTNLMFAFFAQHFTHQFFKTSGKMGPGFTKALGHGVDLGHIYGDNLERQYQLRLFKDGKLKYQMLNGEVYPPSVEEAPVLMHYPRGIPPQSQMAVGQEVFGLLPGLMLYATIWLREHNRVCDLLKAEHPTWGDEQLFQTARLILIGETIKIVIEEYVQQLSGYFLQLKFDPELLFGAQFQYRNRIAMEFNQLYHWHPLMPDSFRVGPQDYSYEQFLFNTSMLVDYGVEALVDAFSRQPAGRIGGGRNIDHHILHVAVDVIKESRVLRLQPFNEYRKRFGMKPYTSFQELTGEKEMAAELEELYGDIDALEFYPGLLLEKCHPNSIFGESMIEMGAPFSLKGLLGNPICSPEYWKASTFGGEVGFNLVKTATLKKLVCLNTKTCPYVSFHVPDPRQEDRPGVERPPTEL
# Assay: In vitro COX-1 inhibition, enzyme immunoassay
# Assay type: biochemical
# Details: not given
row,Structure (SMILES),IC50 [nM]
1,"CC(=O)C(=NO)C(=O)Nc1nccs1 [Compound 2, 2-(hydroxyimino)-3-oxo-N-(thiazol-2-yl)butanamide]",1500
2,"CCOC(=O)c1c(C)[nH]c(C(=O)Nc2nccs2)c1C [Compound 5a, Ethyl 2,4-dimethyl-5-(thiazol-2-ylcarbamoyl)-1H-pyrrole-3-carboxylate]",1600
3,"CC(=O)c1c(C)[nH]c(C(=O)Nc2nccs2)c1C [Compound 5b, 4-Acetyl-3,5-dimethyl-N-(thiazol-2-yl)-1H-pyrrole-2-carboxamide]",1300
4,"Cc1cc(O)n(-c2nccs2)n1 [Compound 7, 3-methyl-1-(thiazol-2-yl)-1H-pyrazol-5-ol]",6340
5,"CCOC(=O)CCC(=O)Nc1nccs1 [Compound 11, ethyl 4-oxo-4-(thiazol-2-ylamino)butanoate]",1700
6,"CC(=O)C(C(C)=O)C(=O)Nc1nccs1 [Compound 17, 2-acetyl-3-oxo-N-(thiazol-2-yl)butanamide]",1400
7,"C/C(=C/C(=O)Nc1nccs1)Nc1ccccc1 [Compound 23a, (Z)-3-(phenylamino)-N-(thiazol-2-yl)but-2-enamide]",6300
8,"COc1ccc(N/C(C)=C\C(=O)Nc2nccs2)cc1 [Compound 23b, (Z)-3-((4-methoxyphenyl)amino)-N-(thiazol-2-yl)but-2-en-amide]",5740
9,"C/C(=C/C(=O)Nc1nccs1)Nc1ccc(Cl)cc1 [Compound 23c, (Z)-3-((4-chlorophenyl)amino)-N-(thiazol-2-yl)but-2-enamide]",6330

# Molecular target: PDE5 (Homo sapiens, UniProt O76074)
# Assay: Phosphodiesterase 5 enzyme activity assay
# Assay type: biochemical
# Details: 10 μM
row,Structure (SMILES),effect on PDE5 activity (in words)
1,"CCOC(=O)c1c(C)[nH]c(C(=O)Nc2nccs2)c1C [Compound 5a, Ethyl 2,4-dimethyl-5-(thiazol-2-ylcarbamoyl)-1H-pyrrole-3-carboxylate]",increased the PDE5 activity
2,"CC(=O)c1c(C)[nH]c(C(=O)Nc2nccs2)c1C [Compound 5b, 4-Acetyl-3,5-dimethyl-N-(thiazol-2-yl)-1H-pyrrole-2-carboxamide]",very low activity
3,"CCOC(=O)CCC(=O)Nc1nccs1 [Compound 11, ethyl 4-oxo-4-(thiazol-2-ylamino)butanoate]",very low activity
4,"CC(=O)C(C(C)=O)C(=O)Nc1nccs1 [Compound 17, 2-acetyl-3-oxo-N-(thiazol-2-yl)butanamide]",increased the PDE5 activity
5,"COc1ccc(N/C(C)=C\C(=O)Nc2nccs2)cc1 [Compound 23b, (Z)-3-((4-methoxyphenyl)amino)-N-(thiazol-2-yl)but-2-en-amide]",increased the PDE5 activity; also recorded: very low activity

# Same assay, conditions: 10 μM compound
row,Structure (SMILES),"PDE5 activity, increase (↑, enhancement) [%]"
1,"CCOC(=O)c1c(C)[nH]c(C(=O)Nc2nccs2)c1C [Compound 5a, Ethyl 2,4-dimethyl-5-(thiazol-2-ylcarbamoyl)-1H-pyrrole-3-carboxylate]",222
2,"CC(=O)c1c(C)[nH]c(C(=O)Nc2nccs2)c1C [Compound 5b, 4-Acetyl-3,5-dimethyl-N-(thiazol-2-yl)-1H-pyrrole-2-carboxamide]",15
3,"CCOC(=O)CCC(=O)Nc1nccs1 [Compound 11, ethyl 4-oxo-4-(thiazol-2-ylamino)butanoate]",3.5
4,"CC(=O)C(C(C)=O)C(=O)Nc1nccs1 [Compound 17, 2-acetyl-3-oxo-N-(thiazol-2-yl)butanamide]",371
5,"COc1ccc(N/C(C)=C\C(=O)Nc2nccs2)cc1 [Compound 23b, (Z)-3-((4-methoxyphenyl)amino)-N-(thiazol-2-yl)but-2-en-amide]",15

# Same assay, conditions: read-out: PDE5 activity, decrease (↓, inhibition)
row,Structure (SMILES),inhibition at 10 µM [%]
1,"CC(=O)C(=NO)C(=O)Nc1nccs1 [Compound 2, 2-(hydroxyimino)-3-oxo-N-(thiazol-2-yl)butanamide]",53
2,"Cc1cc(O)n(-c2nccs2)n1 [Compound 7, 3-methyl-1-(thiazol-2-yl)-1H-pyrazol-5-ol]",75
3,"C/C(=C/C(=O)Nc1nccs1)Nc1ccccc1 [Compound 23a, (Z)-3-(phenylamino)-N-(thiazol-2-yl)but-2-enamide]",100
4,"COc1ccc(N/C(C)=C\C(=O)Nc2nccs2)cc1 [Compound 23b, (Z)-3-((4-methoxyphenyl)amino)-N-(thiazol-2-yl)but-2-en-amide]",100
5,"C/C(=C/C(=O)Nc1nccs1)Nc1ccc(Cl)cc1 [Compound 23c, (Z)-3-((4-chlorophenyl)amino)-N-(thiazol-2-yl)but-2-enamide]",100
6,"CCCc1nn(C)c2c(=O)[nH]c(-c3cc(S(=O)(=O)N4CCN(C)CC4)ccc3OCC)nc12 [Sildenafil, sildenafil, reference compound]",100
